What was measured:
Human T lymphocytes [1] = experiment: Stimulation of lymphokine production in vitro: TCGF (IL-2) activity of supernatants; type: cell-based
Description: (§1) Human T lymphocytes have been incubated with PHA and with or without the peptides under examination for 24 hours (in the case of IL-2) or 72 hours (in the case of BCGF).
(§2) The supernatants have been collected, filtered (0.2 μm) and assayed for the presence of IL-2 or BCGF activity, by adding them at different concentrations to fresh T lymphocytes or to long term cultured B cells. The proliferating activity of these cells, dependent on the presence of the respective growth factor, has been evaluated through 3H-thymidine incorporation.

Human T lymphocytes [2] = experiment: Stimulation of lymphokine production in vitro: BCGF activity of supernatants; type: cell-based
Description: as §1, §2

[3] = system: pure human T lymphocytes, without macrophages; experiment: Lymphokine production by pure human T lymphocytes without macrophages (+IL-1): BCGF activity; type: cell-based
From the text: as §2
The lymphokine production by human T lymphocytes purified through […] on nylon wool column has been evaluated with the same methods as in the previous experiment.
In order to obviate the lack of macrophages, recombinant IL-1 β (Genzyme) has been added at the concentration of 25 Units/ml.

[4] = system: PHA-stimulated human T lymphocytes; experiment: RNA synthesis in PHA-stimulated human T lymphocytes in vitro (3H-uridine); type: cell-based; conditions: for RNA synthesis, 3H-uridine c.p.m. (mean): control 3835
Description: Human T lymphocytes, incubated in vitro for 24 hours in presence of 0.5% phytohemagglutinin (PHA) and different concentrations of the tripeptides under examination, have been analyzed for RNA synthesis (cell activation) by means of 3H-uridine labelling.

Human T lymphocytes [5] = experiment: Effect on cell cycle (propidium iodide, flow cytometer); type: cell-based; conditions: 1 μg/ml, 72 hours with PHA
Description: Human T lymphocytes have been incubated for 72 hours in presence of PHA and the tripeptides under examination (1 μg/ml). DNA has then been stained with propidium iodide and cells have been analyzed with a flow cytometer.

[6] = system: B16-BL6 murine melanoma cells; experiment: Antimetastatic activity: pulmonary colonization by melanoma cells inoculated in mice; type: in vivo, female C57BL/6 mice
From the text: The capacity of the tripeptide […] of inhibiting the pulmonary colonization by B16-BL6 murine melanoma cells inoculated in female C57BL/6 mice having an average body weight of 20 g (10 animals per group) has been evaluated. […] Fourteen days later, the animals have been sacrificed, the lungs have been withdrawn and examined after formalin fixation for the presence of surface melanoma colonies. A group of control animals has only been treated with the tumour cell suspension.

[7] = Toxicological trials: LD50 in mice; conditions: mouse, in vivo, ip; i.p. in mice

SMILES: N=C(N)NCCC[C@H](N)C(=O)NCC(=O)N[C@@H](CC(=O)O)C(=O)O [ARG--GLY--ASP, L-Arginyl-glycyl-L-aspartic acid]
- TCGF activity Δ % (Human T lymphocytes [1]; 3.125% of supernatant): +107%
- TCGF ACTIVITY (mean) (Human T lymphocytes [1]; 3.125% of supernatant, T + PHA 1564): 3245 COUNTS PER MINUTE
- TCGF activity Δ % (Human T lymphocytes [1]; 6.25% of supernatant): +224%
- TCGF ACTIVITY (mean) (Human T lymphocytes [1]; 6.25% of supernatant, T + PHA 2622): 8496 COUNTS PER MINUTE
- TCGF activity Δ % (Human T lymphocytes [1]; 12.5% of supernatant): +227%
- TCGF ACTIVITY (mean) (Human T lymphocytes [1]; 12.5% of supernatant, T + PHA 4012): 13113 COUNTS PER MINUTE
- TCGF activity Δ % (Human T lymphocytes [1]; 25% of supernatant): +105%
- TCGF ACTIVITY (mean) (Human T lymphocytes [1]; 25% of supernatant, T + PHA 7824): 16609 COUNTS PER MINUTE
- TCGF activity Δ % (Human T lymphocytes [1]; 50% of supernatant): +29%
- TCGF ACTIVITY (mean) (Human T lymphocytes [1]; 50% of supernatant, T + PHA 14086): 18167 COUNTS PER MINUTE
- BCGF activity Δ % (Human T lymphocytes [2]; 3.125% of supernatant): +257%
- BCGF ACTIVITY (mean) (Human T lymphocytes [2]; 3.125% of supernatant, T + PHA 1345): 4800 COUNTS PER MINUTE
- BCGF activity Δ % (Human T lymphocytes [2]; 6.25% of supernatant): +299%
- BCGF ACTIVITY (mean) (Human T lymphocytes [2]; 6.25% of supernatant, T + PHA 2156): 8611 COUNTS PER MINUTE
- BCGF activity Δ % (Human T lymphocytes [2]; 12.5% of supernatant): +206%
- BCGF ACTIVITY (mean) (Human T lymphocytes [2]; 12.5% of supernatant, T + PHA 5402): 16550 COUNTS PER MINUTE
- BCGF activity Δ % (Human T lymphocytes [2]; 25% of supernatant): +24%
- BCGF ACTIVITY (mean) (Human T lymphocytes [2]; 25% of supernatant, T + PHA 15030): 18645 COUNTS PER MINUTE
- BCGF activity Δ % (Human T lymphocytes [2]; 50% of supernatant): +19%
- BCGF ACTIVITY (mean) (Human T lymphocytes [2]; 50% of supernatant, T + PHA 17297): 20508 COUNTS PER MINUTE
- stimulation of the growth factor production (Human T lymphocytes [2]; IL-2 and BCGF, slightly lower than Arg-Lys-Glu, higher than Arg-Lys-Asp): marked effect of stimulation
- BCGF activity Δ % ([3]; 1 mcg/ml, 3.125% of supernatant): +94%
- BCGF ACTIVITY c.p.m. ([3]; 1 mcg/ml, 3.125% of supernatant, T + PHA + IL-1 318): 618 c.p.m.
- BCGF activity Δ % ([3]; 1 mcg/ml, 6.25% of supernatant): +9%
- BCGF ACTIVITY c.p.m. ([3]; 1 mcg/ml, 6.25% of supernatant, T + PHA + IL-1 582): 634 c.p.m.
- BCGF activity Δ % ([3]; 1 mcg/ml, 12.5% of supernatant): +141%
- BCGF ACTIVITY c.p.m. ([3]; 1 mcg/ml, 12.5% of supernatant, T + PHA + IL-1 1104): 2663 c.p.m.
- BCGF activity Δ % ([3]; 1 mcg/ml, 25% of supernatant): +106%
- BCGF ACTIVITY c.p.m. ([3]; 1 mcg/ml, 25% of supernatant, T + PHA + IL-1 2507): 5172 c.p.m.
- BCGF activity Δ % ([3]; 1 mcg/ml, 50% of supernatant): +95%
- BCGF ACTIVITY c.p.m. ([3]; 1 mcg/ml, 50% of supernatant, T + PHA + IL-1 5056): 9837 c.p.m.
- BCGF activity Δ % ([3]; 10 mcg/ml, 3.125% of supernatant): +147%
- BCGF ACTIVITY c.p.m. ([3]; 10 mcg/ml, 3.125% of supernatant, T + PHA + IL-1 318): 784 c.p.m.
- BCGF activity Δ % ([3]; 10 mcg/ml, 6.25% of supernatant): +49%
- BCGF ACTIVITY c.p.m. ([3]; 10 mcg/ml, 6.25% of supernatant, T + PHA + IL-1 582): 866 c.p.m.
- BCGF activity Δ % ([3]; 10 mcg/ml, 12.5% of supernatant): +171%
- BCGF ACTIVITY c.p.m. ([3]; 10 mcg/ml, 12.5% of supernatant, T + PHA + IL-1 1104): 2997 c.p.m.
- BCGF activity Δ % ([3]; 10 mcg/ml, 25% of supernatant): +173%
- BCGF ACTIVITY c.p.m. ([3]; 10 mcg/ml, 25% of supernatant, T + PHA + IL-1 2507): 6849 c.p.m.
- BCGF activity Δ % ([3]; 10 mcg/ml, 50% of supernatant): +125%
- BCGF ACTIVITY c.p.m. ([3]; 10 mcg/ml, 50% of supernatant, T + PHA + IL-1 5056): 11364 c.p.m.
- effect on lymphokine production by pure T lymphocytes ([3]; both for IL-2 and BCGF, IL-1 β 25 Units/ml): comparable with that of the other reference compounds
- PHA-induced human T lymphocyte activation (RNA synthesis) ([4]; 24 hours, 0.5% PHA): able to increase
- RNA synthesis Δ % ([4]; peptide 0.0001 mcg/ml): -3%
- RNA synthesis, 3H-uridine c.p.m. (mean) ([4]; peptide 0.0001 mcg/ml, 24 hours, 0.5% PHA): 3703 c.p.m.
- RNA synthesis Δ % ([4]; peptide 0.001 mcg/ml): -2%
- RNA synthesis, 3H-uridine c.p.m. (mean) ([4]; peptide 0.001 mcg/ml, 24 hours, 0.5% PHA): 3741 c.p.m.
- RNA synthesis Δ % ([4]; peptide 0.01 mcg/ml): +11%
- RNA synthesis, 3H-uridine c.p.m. (mean) ([4]; peptide 0.01 mcg/ml, 24 hours, 0.5% PHA): 4259 c.p.m.
- RNA synthesis Δ % ([4]; peptide 0.1 mcg/ml): +18%
- RNA synthesis, 3H-uridine c.p.m. (mean) ([4]; peptide 0.1 mcg/ml, 24 hours, 0.5% PHA): 4516 c.p.m.
- RNA synthesis Δ % ([4]; peptide 1 mcg/ml): +6%
- RNA synthesis, 3H-uridine c.p.m. (mean) ([4]; peptide 1 mcg/ml, 24 hours, 0.5% PHA): 4068 c.p.m.
- RNA synthesis Δ % ([4]; peptide 10 mcg/ml): +9%
- RNA synthesis, 3H-uridine c.p.m. (mean) ([4]; peptide 10 mcg/ml, 24 hours, 0.5% PHA): 4199 c.p.m.
- G2 + M % cells, difference from T + PHA (Human T lymphocytes [5]): +6.12
- Go-Gl % cells, difference from T + PHA (Human T lymphocytes [5]): -5.67
- S % cells, difference from T + PHA (Human T lymphocytes [5]): -1.15
- CELL PHASES G2 + M % CELLS (Human T lymphocytes [5]; T + PHA 6.02): 12.14%
- CELL PHASES S % CELLS (Human T lymphocytes [5]; T + PHA 30.61): 29.46%
- CELL PHASES Go-Gl % CELLS (Human T lymphocytes [5]; T + PHA 63.36): 57.69%
- mean number of metastases ([6]; 3 mg/mouse i.v. together with 2×10^5 melanoma cells, lungs after 14 days, controls above 500/mouse): 173 /mouse
- change of mean number of metastases vs controls ([6]; 3 mg/mouse i.v., 7×10^4 tumour cells): -69%
- mean number of metastases ([6]; 3 mg/mouse i.v., 7×10^4 tumour cells, controls 21.6): 6.8
- LD50 [7]: > 1000 mg/kg
